# Laboratory results taken from EPA's ToxValDB 9.5 (doi:10.2903/j.efsa.2020.6058).
# How the values were obtained:
# Typhlodromus pyri = assay: LR50; higher = less toxic; settings: not reported; mortality
# Neomysis kadiakensis = settings: chronic/long-term; duration: 28 days; development
# Apis mellifera = settings: acute; oral; unspecified; mortality
# Serinus canaria = settings: acute; oral; unspecified; mortality
# Mus musculus = settings: acute; oral; M; mortality
# Anas platyrhynchos = settings: chronic/long-term
# Tagia sp. = settings: chronic/long-term; reproduction
# Rattus norvegicus = settings: clinical signs
# Hypoaspis aculeifer = settings: chronic/long-term; reproduction
# Bibionidae = settings: chronic/long-term; duration: 28 days; development
structure (smiles),measurement,setting,value
CC1(C)C(C=C(Cl)Cl)[C@@H]1C(=O)O[C@@H](C#N)c1ccc(F)c(Oc2ccccc2)c1 (stereo partly drawn) [beta-Cyfluthrin],LR50,Typhlodromus pyri,0.0025 g/ha
same,NOEC,Neomysis kadiakensis,0.00041 µg/L
same,LD50,Apis mellifera,0.05 µg/piece
same,LD50,Serinus canaria,170 mg/kg-day
same,LD50,Mus musculus,91 mg/kg-day
same,NOAEL,Anas platyrhynchos,2.6 mg/kg-day
same,LC50,"Oncorhynchus mykiss; acute, mortality",0.068 ng/mL
same,NOEC,"Oncorhynchus mykiss; chronic/long-term, duration: 58 days, growth",0.0042 µg/L
same,NOEC,Tagia sp.,0.825 mg/kg
same,NOAEL,Rattus norvegicus; reproduction developmental,1.39 mg/kg-day
same,NOAEL,"Rattus norvegicus; short-term, duration: 28 days",1 mg/kg-day
same,NOAEL,"Rattus norvegicus; subchronic, duration: 13 weeks, inhalation",0.02 mg/kg-day
same,NOEC,Hypoaspis aculeifer,0.97 mg/kg
same,NOEC,Bibionidae,0.0057 µg/L
